How the values were obtained:
[1] = xn = mol fraction of the nth substance listed; settings: 93.4 kPa, Liquid, x2 = 0.059; for viscosity: Concentric cylinders viscometry; for mass density: Vibrating tube method
[2] = Liquid; for viscosity / mass density: 93.4 kPa; for viscosity: Concentric cylinders viscometry; for mass density: Vibrating tube method; for vapor or sublimation pressure: Closed cell (Static) method

C=CCn1cc[n+](C)c1.[Cl-] [1-allyl-3-methylimidazolium chloride] + O
[1]
Settings | mass density [kg/m3] | viscosity [mPa·s]
323.15 K | 1132.7 | 212
333.15 K | 1127.1 | 115
343.15 K | 1121.5 | 68.7
353.15 K | 1116 | 44
363.15 K | 1110.5 | 30
373.15 K | 1105.2 | 21.4

C[S+](C)[O-] [dimethyl sulfoxide]
[2]
Settings | mass density [kg/m3] | vapor or sublimation pressure [kPa] | viscosity [mPa·s]
293.15 K | 1101.2 | – | 2.26
303.15 K | 1091.2 | – | 1.85
313.15 K | 1081.1 | – | 1.56
323.15 K | 1071.1 | – | 1.33
333.15 K | 1061.2 | – | 1.16
343.15 K | 1051.3 | – | 1.02
353.1 K | – | 2 | –
353.15 K | 1041.1 | – | 0.905
363.1 K | – | 3.2 | –
363.15 K | 1031.3 | – | 0.815
373.1 K | – | 5 | –
373.15 K | 1021.4 | – | 0.741
383.1 K | – | 7.6 | –
393.1 K | – | 11.2 | –
403.1 K | – | 16 | –
413.1 K | – | 22.7 | –
423.1 K | – | 31.6 | –
433.1 K | – | 43.2 | –

From the NIST ThermoML archive (doi:10.1016/j.jct.2018.04.014)
